Results: US9809583B2 (priority 2014, dated 2017)
Structures can show the parent of a compound that is named as a salt.

Each molecule was assayed against androgen receptor (hAR) (Homo sapiens (Human), UniProt P10275) (assay: Test of transcriptional activity (hAR / ARE-Luc dual-luciferase assay in CHO cells)). Settings: CHO cells with hAR and ARE-Luc, 24 hours; 10 nM DHT = 100%; read-out: EC50 [nM] (mean ± SE).
Type: cell-based
Summary of the method: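 CHO cells cultured 24 h, then transfected with hAR and ARE-Luc plasmids. Transfected cells treated with 0.1˜10,000 nM compound for 24 h; transcriptional activity read by dual-luciferase reporter.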

androgen receptor (hAR), sequence (P10275 whole entry): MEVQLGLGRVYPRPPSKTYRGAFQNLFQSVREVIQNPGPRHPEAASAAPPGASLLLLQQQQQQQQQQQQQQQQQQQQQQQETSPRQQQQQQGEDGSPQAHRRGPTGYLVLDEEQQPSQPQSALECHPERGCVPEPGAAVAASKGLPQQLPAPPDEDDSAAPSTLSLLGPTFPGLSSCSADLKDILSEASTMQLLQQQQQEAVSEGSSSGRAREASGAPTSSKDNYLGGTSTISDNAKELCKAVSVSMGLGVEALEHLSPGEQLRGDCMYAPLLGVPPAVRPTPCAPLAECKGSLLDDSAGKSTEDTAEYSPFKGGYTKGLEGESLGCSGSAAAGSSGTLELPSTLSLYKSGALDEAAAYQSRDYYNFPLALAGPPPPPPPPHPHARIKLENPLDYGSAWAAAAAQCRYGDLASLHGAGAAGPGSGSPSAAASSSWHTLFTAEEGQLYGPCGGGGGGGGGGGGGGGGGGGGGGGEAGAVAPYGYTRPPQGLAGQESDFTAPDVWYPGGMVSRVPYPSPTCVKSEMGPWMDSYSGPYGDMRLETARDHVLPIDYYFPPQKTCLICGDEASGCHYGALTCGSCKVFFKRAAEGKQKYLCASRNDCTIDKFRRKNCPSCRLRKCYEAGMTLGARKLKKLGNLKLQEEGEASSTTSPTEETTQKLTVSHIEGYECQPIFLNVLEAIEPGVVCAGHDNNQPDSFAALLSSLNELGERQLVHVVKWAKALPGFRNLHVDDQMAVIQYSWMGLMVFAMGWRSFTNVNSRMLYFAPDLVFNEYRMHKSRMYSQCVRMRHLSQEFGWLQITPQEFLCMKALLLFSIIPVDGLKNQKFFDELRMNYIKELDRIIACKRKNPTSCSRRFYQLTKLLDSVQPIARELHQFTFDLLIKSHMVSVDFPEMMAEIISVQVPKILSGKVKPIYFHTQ

Q: Which EC50 does the source give for `COC(=O)N1CCN(C(=O)[C@@H]2CN(c3ccc([N+](=O)[O-])c(C)c3)[C@@H](C(F)(F)F)O2)CC1` [Example 179, methyl 4-((2R,5S)-3-(3-methyl-4-nitrophenyl)-2-(trifluoromethyl)oxazolidine-5-carbonyl)piperazine-1-carboxylate] here?
A: The EC50 was 42 nM.

Q: How did the EC50 turn out when “(2R,5S)-3-(3-chloro-4-cyanophenyl)-N-(4-cyano-2-fluorophenyl)-2-(trifluoromethyl)oxazolidine-5-carboxamide [Example 119]” was run?
A: The EC50 was 227 nM.

Q: For “(2R,5S)-3-(3-chloro-4-cyanophenyl)-N-(4-cyanophenyl)-2-(trifluoromethyl)oxazolidine-5-carboxamide [Example 117]”, which EC50 is on record?
A: Its EC50 is 2 nM.

Q: With “(2R,5S)-3-(3-chloro-4-cyanophenyl)-N-(6-cyanopyridin-3-yl)-2-(trifluoromethyl)oxazolidine-5-carboxamide [Example 120]” as the molecule, how does the EC50 read?
A: Its EC50 is 11.1 nM.

Q: “(2R,5S)-3-(3-chloro-4-cyanophenyl)-N-(pyridin-4-yl)-2-(trifluoromethyl)oxazolidine-5-carboxamide [Example 121]” was tested. Which EC50 did it give?
A: The EC50 was 616 nM.

Q: “(2R,5S)-3-(3-chloro-4-nitrophenyl)-N-(4-cyano-2-fluorophenyl)-2-(trifluoromethyl)oxazolidine-5-carboxamide [Example 124]” was tested. Which EC50 did it give?
A: Its EC50 is 3.15 nM.

Q: For “(2R,5S)-3-(3-chloro-4-nitrophenyl)-N-(4-cyanophenyl)-2-(trifluoromethyl)oxazolidine-5-carboxamide [Example 122]”, which EC50 is on record?
A: The EC50 was 67.4 nM.

Q: How did the EC50 turn out when “(2R,5S)-3-(3-chloro-4-nitrophenyl)-N-(6-cyanopyridin-3-yl)-2-(trifluoromethyl)oxazolidine-5-carboxamide [Example 125]” was run?
A: The EC50 was 11.2 nM.

Q: “(2R,5S)-3-(3-chloro-4-nitrophenyl)-N-(pyridin-4-yl)-2-(trifluoromethyl)oxazolidine-5-carboxamide [Example 126]” was tested. Which EC50 did it give?
A: Its EC50 is 1.21 nM.

Q: “(2R,5S)-3-(4-cyano-3-(trifluoromethyl)phenyl)-N-(3,4-dicyanophenyl)-2-(trifluoromethyl)oxazolidine-5-carboxamide [Example 132]” was tested. Which EC50 did it give?
A: Its EC50 is 3.44 nM.

Q: How did the EC50 turn out when “(2R,5S)-3-(4-cyano-3-(trifluoromethyl)phenyl)-N-(4-cyano-3-methoxyphenyl)-2-(trifluoromethyl)oxazolidine-5-carboxamide [Example 127]” was run?
A: The EC50 was 183 nM.

Q: How did the EC50 turn out when “(2R,5S)-N-(2-chloro-4-cyanophenyl)-3-(4-cyano-3-(trifluoromethyl)phenyl)-2-(trifluoromethyl)oxazolidine-5-carboxamide [Example 114]” was run?
A: The EC50 was 201 nM.

Q: “(2R,5S)-N-(2-chloropyridin-4-yl)-3-(3-methyl-4-nitrophenyl)-2-(trifluoromethyl)oxazolidine-5-carboxamide [Example 137]” was tested. Which EC50 did it give?
A: The EC50 was 1.77 nM.

Q: “(2R,5S)-N-(3-chloro-4-cyano-2-fluorophenyl)-3-(4-cyano-3-(trifluoromethyl)phenyl)-2-(trifluoromethyl)oxazolidine-5-carboxamide [Example 130]” was tested. Which EC50 did it give?
A: Its EC50 is 10.2 nM.

Q: How did the EC50 turn out when “(2R,5S)-N-(3-chloro-4-cyanophenyl)-3-(4-cyano-3-(trifluoromethyl)phenyl)-2-(trifluoromethyl)oxazolidine-5-carboxamide [Example 134]” was run?
A: The EC50 was 4.96 nM.

Q: With “(2R,5S)-N-(4-acetamidophenyl)-3-(3-chloro-4-cyanophenyl)-2-(trifluoromethyl)oxazolidine-5-carboxamide [Example 118]” as the molecule, how does the EC50 read?
A: The EC50 was 30.4 nM.

Q: “(2R,5S)-N-(4-acetamidophenyl)-3-(3-methyl-4-nitrophenyl)-2-(trifluoromethyl)oxazolidine-5-carboxamide [Example 112]” was tested. Which EC50 did it give?
A: The EC50 was 10.1 nM.

Q: “(2R,5S)-N-(4-cyano-2,5-difluorophenyl)-3-(4-cyano-3-(trifluoromethyl)phenyl)-2-(trifluoromethyl)oxazolidine-5-carboxamide [Example 131]” was tested. Which EC50 did it give?
A: Its EC50 is 2.35 nM.

Q: Which EC50 does the source give for “(2R,5S)-N-(4-cyano-2,6-difluorophenyl)-3-(4-cyano-3-(trifluoromethyl)phenyl)-2-(trifluoromethyl)oxazolidine-5-carboxamide [Example 129]” here?
A: The EC50 was 4.68 nM.

Q: How did the EC50 turn out when “(2R,5S)-N-(4-cyano-2-(trifluoromethyl)phenyl)-3-(4-cyano-3-(trifluoromethyl)phenyl)-2-(trifluoromethyl)oxazolidine-5-carboxamide [Example 128]” was run?
A: The EC50 was 11.1 nM.

Q: With “(2R,5S)-N-(4-cyano-2-fluorophenyl)-3-(3-methyl-4-nitrophenyl)-2-(trifluoromethyl)oxazolidine-5-carboxamide [Example 113]” as the molecule, how does the EC50 read?
A: Its EC50 is 80.5 nM.

Q: With “(2R,5S)-N-(4-cyano-2-methylphenyl)-3-(4-cyano-3-(trifluoromethyl)phenyl)-2-(trifluoromethyl)oxazolidine-5-carboxamide [Example 133]” as the molecule, how does the EC50 read?
A: The EC50 was 44 nM.

Q: “(2R,5S)-N-(4-cyanophenyl)-3-(3-methyl-4-nitrophenyl)-2-(trifluoromethyl)oxazolidine-5-carboxamide [Example 111]” was tested. Which EC50 did it give?
A: The EC50 was 4.46 nM.

Q: Which EC50 does the source give for “(2R,5S)-N-(6-acetamidopyridin-3-yl)-3-(4-cyano-3-(trifluoromethyl)phenyl)-2-(trifluoromethyl)oxazolidine-5-carboxamide [Example 135]” here?
A: The EC50 was 4.95 nM.

Q: Which EC50 does the source give for “(2R,5S)-N-(6-cyanopyridin-3-yl)-3-(3-methyl-4-nitrophenyl)-2-(trifluoromethyl)oxazolidine-5-carboxamide [Example 116]” here?
A: The EC50 was 4.32 nM.

Same assay, conditions: EC50 [nM] (mean ± SE), CHO cells with hAR and ARE-Luc, 24 hours; 10 nM DHT = 100%

Q: With `N#Cc1ccc(N2C[C@@H](C(=O)N3CCN(C#N)CC3)O[C@@H]2C(F)(F)F)cc1C(F)(F)F` [Example 174, 4-((2R,5S)-3-(4-cyano-3-(trifluoromethyl)phenyl)-2-(trifluoromethyl)oxazolidine-5-carbonyl)piperazine-1-carbonitrile] as the molecule, how does the EC50 read?
A: The EC50 was 139 nM.

Q: How did the EC50 turn out when `N#Cc1ccc(N2C[C@@H](C(=O)N3CCC(N)CC3)O[C@@H]2C(F)(F)F)cc1C(F)(F)F` [Example 175, 4-((2R,5S)-5-(4-aminopiperidine-1-carbonyl)-2-(trifluoromethyl)oxazolidin-3-yl)-2-(trifluoromethyl)benzonitrile hydrochloride] was run?
A: The EC50 was 85.2 nM.

Q: `CC(=O)NC1CCN(C(=O)[C@@H]2CN(c3ccc(C#N)c(C(F)(F)F)c3)[C@@H](C(F)(F)F)O2)CC1` [Example 176] was tested. Which EC50 did it give?
A: The EC50 was 198 nM.

Q: For `COC(=O)N1CCN(C(=O)[C@@H]2CN(c3ccc(C#N)c(Cl)c3)[C@@H](C(F)(F)F)O2)CC1` [Example 178, methyl 4-((2R,5S)-3-(3-chloro-4-cyanophenyl)-2-(trifluoromethyl)oxazolidine-5-carbonyl)piperazine-1-carboxylate], which EC50 is on record?
A: The EC50 was 21.2 nM.
